The test system of the data set is human colon cancer cell line SW620. Description: In vivo anticancer effect, SW620 transplanted nude mice. The arrangement: species or system BALB/c nude mice. On the procedure: Female SPF BALB/c nude mice purchased from Charles River, Japan, were used as test animals. They were at 6 weeks and weighed 14-17 g. Before being used for experiments, the test animals were adapted at least one week in a clean animal lab. Temperature of the animal lab was 21±2° C. and humidity was set at 55±5%. Light/dark cycle was automatically regulated as 12/12. The solid feeds for the test animals were radiation sterilized products (Polas International, Seoul, Korea). Drinking water was sterilized by autoclave. Feeds and drinking water were given freely.
For the cancer cell line, human colon cancer cell line SW620 purchased from ATCC, USA and stored at Korean Research Institute of Bioscience and Biotechnology was used. […] On the final day of culture, every cell was collected and counted and the final cell concentration was regulated to 1×10^7 cells/ml by adding saline.
SW620 cancer cells were hypodermically injected in the right armpit in-between the shoulder and the wall of chest by 0.3 ml at the concentration of 3×10^6 cells/mouse. […] Weight changes of the test animals were measured three times per week. Tumor volume was measured 7 times from day 5 to day 20 in every test animal. Precisely, the tumor volume was measured by measuring three dimensions of the tumor using Vernier Caliper and then calculated by the following formula: […]

Structures are written as SMILES.

For `COc1cccc2c1C(=O)c1c(O)c3c(c(O)c1C2=O)C[C@@](O)(C(=O)CO)C[C@@H]3O[C@H]1C[C@H](N)[C@H](O)[C@H](C)O1` [adriamycin], the weight loss (adriamycin administered positive control, p<0.001) stood at 13.1%. The molecule further showed a tumor growth inhibition (positive control, P<0.001) of 58.0%.
